Results on seven compounds are retold here after patent US20240158418A1 (C4 Therapeutics, Inc., priority 2021, published 2024).

In one assay the target is T1, EGFR L858R-T790M (Homo sapiens, UniProt P00533, L858R/T790M).
T1 construct: NCI-H1975 (harboring EGFR heterozygous L858R-T790M mutations); host or cells: NCI-H1975
In words: EGFR degradation, Total EGFR (L858R-specific) HTRF, NCI-H1975. The assay is classed as cell-based. The note with it: NCI-H1975 cells, 6 hours, Total EGFR HTRF, read-out: H1975 EGFR DC50. An outline of the steps:
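Cells in RPMI 1640 + 10% FBS treated 6 h at 37°C with compound, 11-point half-log titration from 10 μM top, in duplicate. pY1068 and total EGFR read by HTRF (pan-EGFR antibody for wild-type A431; L858R-specific for mutants); IC50 for phospho inhibition, DC50 for 50% degradation.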

A further assay addresses EGFR L858R (Homo sapiens, UniProt P00533, L858R). In words: EGFR degradation, Total EGFR (L858R-specific) HTRF, NCI-H3255. The assay is classed as cell-based. Set-up: NCI-H3255 (harboring EGFR heterozygous L858R mutation); host or cells: NCI-H3255. To be noted: NCI-H3255 cells, 6 hours, Total EGFR HTRF, read-out: H3255 EGFR DC50. The text has this:
NCI-H1975 (harboring EGFR heterozygous L858R-T790M mutations) and NCI-H3255 (harboring EGFR heterozygous L858R mutation) were purchased from ATCC and NCI, respectively. NCI-H1975+CS (harboring EGFR heterozygous L858R-T790M-C797S mutations) was generated using CRISPR technology to introduce the additional C797S mutation by Horizon Discovery. A431 (harboring EGFR wildtype) was purchased from ATCC. RPMI 1640 no-phenol red medium and fetal bovine serum (FBS) were purchased from Gibco (Grand Island, NY, USA). Cell culture flasks and 384-well microplates were acquired from VWR (Radnor, PA, USA). Phosphorylated (pY1068) EGFR and Total EGFR (using L858R-specific detection antibody and pan-EGFR antibody for EGFR mutant cell lines and EGFR wild-type cell lines, respectively) HTRF assay kits were purchased from Cisbio (Bedford, MA, USA).
Degradation of EGFR protein containing L858R mutation or wild-type was determined based on quantification of FRET signal using a Total EGFR (L858R-specific or pan-EGFR detecting) HTRF assay kit. Phospho-EGFR (pEGFR) inhibition was determined based on quantification of FRET signal using a pY1068 EGFR HTRF assay kit. In separate assay plates, test compounds were added to the 384-well plate from a top concentration of 10 μM with 11 points, half log titration in duplicates. For each assay, 12.5 uL of cells suspended in assay media (RPMI 1640 no-phenol red medium+10% FBS) at cell densities indicated for each cell line in Table 8 below were dispensed using a multi-channel pipette to 384-well low volume white HTRF microplates containing a duplicate concentration range of test compounds and DMSO controls. The plates were kept at 37° C. with 5% CO2 for 6 hours and then incubated with either phospho EGFR or Total EGFR HTRF detection antibodies according to the cell line and EGFR mutant being assayed. Cells treated in the absence of the test compound were the negative control. Positive control was set by wells containing all reagents but no cells. FRET signal was acquired on EnVision™ Multilabel Reader (PerkinElmer, Santa Clara, CA, USA). Compound concentration that achieves 50% degradation and inhibition was reported as DC50 and IC50, respectively.

Read-outs that look alike come from different tables or passages of the source.

Chain of EGFR L858R (P00533 25-1210 L858R): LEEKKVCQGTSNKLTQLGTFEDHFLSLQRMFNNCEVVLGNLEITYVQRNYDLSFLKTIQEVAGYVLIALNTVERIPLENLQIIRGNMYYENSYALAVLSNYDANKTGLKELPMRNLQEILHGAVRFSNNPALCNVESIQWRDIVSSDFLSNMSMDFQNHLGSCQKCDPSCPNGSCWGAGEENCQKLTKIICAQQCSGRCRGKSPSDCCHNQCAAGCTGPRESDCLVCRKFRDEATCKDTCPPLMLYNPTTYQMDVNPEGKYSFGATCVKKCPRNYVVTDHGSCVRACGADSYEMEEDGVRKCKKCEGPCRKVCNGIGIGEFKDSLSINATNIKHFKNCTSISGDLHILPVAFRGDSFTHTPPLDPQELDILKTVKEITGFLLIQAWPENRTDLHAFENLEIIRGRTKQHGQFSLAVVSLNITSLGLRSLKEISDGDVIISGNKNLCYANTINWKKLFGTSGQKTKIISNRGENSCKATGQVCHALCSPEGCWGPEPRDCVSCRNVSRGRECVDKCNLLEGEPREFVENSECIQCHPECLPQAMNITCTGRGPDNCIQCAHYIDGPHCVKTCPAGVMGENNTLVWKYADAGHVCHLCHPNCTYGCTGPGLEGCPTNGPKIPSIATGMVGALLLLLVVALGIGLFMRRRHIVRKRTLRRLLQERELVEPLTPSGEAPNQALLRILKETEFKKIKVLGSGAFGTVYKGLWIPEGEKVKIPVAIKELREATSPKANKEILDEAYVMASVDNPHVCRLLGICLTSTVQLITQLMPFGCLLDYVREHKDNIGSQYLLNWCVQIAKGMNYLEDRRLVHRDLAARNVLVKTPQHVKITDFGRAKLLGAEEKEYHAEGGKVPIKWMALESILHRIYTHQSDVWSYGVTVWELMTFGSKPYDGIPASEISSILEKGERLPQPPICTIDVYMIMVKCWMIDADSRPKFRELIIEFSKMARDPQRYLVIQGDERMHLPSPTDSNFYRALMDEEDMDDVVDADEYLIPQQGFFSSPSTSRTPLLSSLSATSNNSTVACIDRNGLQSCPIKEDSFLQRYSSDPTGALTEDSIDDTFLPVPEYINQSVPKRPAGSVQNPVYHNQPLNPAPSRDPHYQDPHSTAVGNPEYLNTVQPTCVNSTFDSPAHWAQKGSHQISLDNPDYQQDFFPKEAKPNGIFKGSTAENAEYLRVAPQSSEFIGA
T1 sequence (P00533 25-1210 T790M/L858R): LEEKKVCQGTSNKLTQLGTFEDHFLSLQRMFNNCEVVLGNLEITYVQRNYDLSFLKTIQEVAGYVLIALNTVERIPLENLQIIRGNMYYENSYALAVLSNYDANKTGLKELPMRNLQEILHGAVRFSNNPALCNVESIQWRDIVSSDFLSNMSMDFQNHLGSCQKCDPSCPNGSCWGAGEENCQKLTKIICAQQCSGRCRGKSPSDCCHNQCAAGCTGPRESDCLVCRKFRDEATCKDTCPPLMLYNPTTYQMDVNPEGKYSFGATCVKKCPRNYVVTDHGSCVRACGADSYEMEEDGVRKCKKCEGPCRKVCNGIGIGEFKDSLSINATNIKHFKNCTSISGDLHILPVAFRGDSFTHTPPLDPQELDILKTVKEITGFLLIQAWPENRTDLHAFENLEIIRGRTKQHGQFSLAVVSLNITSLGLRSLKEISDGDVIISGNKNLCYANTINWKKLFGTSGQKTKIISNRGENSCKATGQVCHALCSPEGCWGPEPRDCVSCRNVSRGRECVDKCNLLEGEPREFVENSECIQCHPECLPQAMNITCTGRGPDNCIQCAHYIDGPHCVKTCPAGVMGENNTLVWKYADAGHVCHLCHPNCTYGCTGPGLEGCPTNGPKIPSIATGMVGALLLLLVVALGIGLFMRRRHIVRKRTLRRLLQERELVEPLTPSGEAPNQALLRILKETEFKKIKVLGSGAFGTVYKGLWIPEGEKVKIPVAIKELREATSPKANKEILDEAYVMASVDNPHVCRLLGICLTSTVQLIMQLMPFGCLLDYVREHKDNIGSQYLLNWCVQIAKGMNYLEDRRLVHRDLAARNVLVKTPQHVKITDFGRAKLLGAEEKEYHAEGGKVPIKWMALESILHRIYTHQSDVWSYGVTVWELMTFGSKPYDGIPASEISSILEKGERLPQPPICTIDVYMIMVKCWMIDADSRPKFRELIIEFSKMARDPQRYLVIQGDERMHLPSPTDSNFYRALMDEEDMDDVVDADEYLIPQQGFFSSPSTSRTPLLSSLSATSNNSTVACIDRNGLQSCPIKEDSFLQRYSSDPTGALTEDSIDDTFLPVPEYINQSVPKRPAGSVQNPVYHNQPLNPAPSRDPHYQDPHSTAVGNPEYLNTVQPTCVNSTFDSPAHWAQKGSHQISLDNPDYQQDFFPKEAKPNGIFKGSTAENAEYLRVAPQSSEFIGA

For `O=C1CCC(Nc2ccc(C3CCN(C(=O)CN4CCN(c5ccc(-c6cc(F)c7c(c6)C(=O)N(C(C(=O)Nc6nccs6)c6ncn8c6CCC8)C7)cc5)CC4)CC3)cc2)C(=O)N1` (centres unmarked) [Compound 178, 2-(6,7-dihydro-5H-pyrrolo[1,2-c]imidazol-1-yl)-2-(6-(4-(4-(2-(4-(4-((2,6-dioxopiperidin-3-yl)amino)phenyl)piperidin-1-yl)-2-oxoethyl)piperazin-1-yl)phenyl)-4-fluoro-1-oxoisoindolin-2-yl)-N-(thiazol-2-yl)acetamide], the DC50 at EGFR L858R-T790M (Table 9B) and at EGFR L858R (Table 9B) was under 50 nM each time.

Take `O=C1CC[C@@H](Nc2ccc(C3CCN(CC(=O)N4CCN(c5ccc(-c6cc(F)c7c(c6)C(=O)N(C(C(=O)Nc6nccs6)c6ncn8c6CCC8)C7)cc5)CC4)CC3)cc2)C(=O)N1` (stereo partly drawn) [Compound 175, 2-(6,7-dihydro-5H-pyrrolo[1,2-c]imidazol-1-yl)-2-[6-[4-[4-[2-[4-[4-[[(3R)-2,6-dioxo-3-piperidyl]amino]phenyl]-1-piperidyl]acetyl]piperazin-1-yl]phenyl]-4-fluoro-1-oxo-isoindolin-2-yl]-N-thiazol-2-yl-acetamide]: the DC50 on EGFR L858R-T790M (Table 9B) and on EGFR L858R (Table 9B) was under 50 nM each time.

On to `O=C1CC[C@H](Nc2ccc(C3CCN(CC(=O)N4CCN(c5ccc(-c6cc(F)c7c(c6)C(=O)N(C(C(=O)Nc6nccs6)c6ncn8c6CCC8)C7)cn5)CC4)CC3)c(F)c2)C(=O)N1` (some centres unmarked) [Compound 27], for which the 50% degradation concentration (DC50) on EGFR L858R-T790M (Table 9A) and on EGFR L858R (Table 9A) was under 50 nM each time.

As for `O=C1CCC(Nc2ccc(C3CCN(CC(=O)N4CCN(Cc5ccc(-c6cc(F)c7c(c6)C(=O)N(C(C(=O)Nc6nccs6)c6ncn8c6CCC8)C7)cc5)CC4)CC3)cc2)C(=O)N1` (centres unmarked) [Compound 6, 2-(6,7-dihydro-5H-pyrrolo[1,2-c]imidazol-1-yl)-2-[6-[4-[[4-[2-[4-[4-[(2,6-dioxo-3-piperidyl)amino]phenyl]-1-piperidyl]acetyl]piperazin-1-yl]methyl]phenyl]-4-fluoro-1-oxo-isoindolin-2-yl]-N-thiazol-2-yl-acetamide], the half-maximal degradation concentration (DC50) at EGFR L858R-T790M (Table 9A) and on EGFR L858R (Table 9A) was under 50 nM throughout.

As for `Cn1nc(N2CCC(=O)NC2=O)c2ccc(C3CCN(CC(=O)N4CCN(c5ccc(-c6cc(F)c7c(c6)C(=O)N(C(C(=O)Nc6nccs6)c6ncn8c6C[C@@H](F)C8)C7)cc5)CC4)CC3)cc21` (stereo partly drawn) [Compound 45, 2-[6-[4-[4-[2-[4-[3-(2,4-dioxohexahydropyrimidin-1-yl)-1-methyl-indazol-6-yl]-1-piperidyl]acetyl]piperazin-1-yl]phenyl]-4-fluoro-1-oxo-isoindolin-2-yl]-2-[(6R)-6-fluoro-6,7-dihydro-5H-pyrrolo[1,2-c]imidazol-1-yl]-N-thiazol-2-yl-acetamide], the DC50 on EGFR L858R-T790M (Table 9A) and at EGFR L858R (Table 9A) was under 50 nM in each case.

With `Cn1nc(N2CCC(=O)NC2=O)c2ccc(C3CCN(C(=O)CN4CCC(c5ccc(-c6cc(F)c7c(c6)C(=O)N(C(C(=O)Nc6nccs6)c6ncn8c6CCC8)C7)cc5)CC4)CC3)cc21` (centres unmarked) [Compound 85, 2-(6,7-dihydro-5H-pyrrolo[1,2-c]imidazol-1-yl)-2-[6-[4-[1-[2-[4-[3-(2,4-dioxohexahydropyrimidin-1-yl)-1-methyl-indazol-6-yl]-1-piperidyl]-2-oxo-ethyl]-4-piperidyl]phenyl]-4-fluoro-1-oxo-isoindolin-2-yl]-N-thiazol-2-yl-acetamide], the figures for the half-maximal degradation concentration (DC50) at EGFR L858R-T790M (Table 9B) and at EGFR L858R (Table 9B) were 50 to 150 nM and under 50 nM, respectively.

Regarding `O=C1CCC(Nc2ccc(C3CCN(CC(=O)N4CCN(c5ccc(-c6cc(F)c7cn(C(C(=O)Nc8nccs8)c8ncn9c8CCC9)nc7c6)cn5)CC4)CC3)nc2)C(=O)N1` (centres unmarked) [Compound 66, 2-(6,7-dihydro-5H-pyrrolo[1,2-c]imidazol-1-yl)-2-[6-[6-[4-[2-[4-[5-[(2,6-dioxo-3-piperidyl)amino]-2-pyridyl]-1-piperidyl]acetyl]piperazin-1-yl]-3-pyridyl]-4-fluoro-indazol-2-yl]-N-thiazol-2-yl-acetamide], the DC50 at EGFR L858R-T790M (Table 9A) and on EGFR L858R (Table 9A) was under 50 nM in each case.
